Reference: BindingDB's records for doi:10.7270/Q2NG4P21 (Nmmlsc, 2009)

Molecular target: T1, Bcl-2-like protein 10 [11-204] (Homo sapiens, UniProt Q9HD36)
T1 construct: 11-204
T1 sequence (Q9HD36 whole entry): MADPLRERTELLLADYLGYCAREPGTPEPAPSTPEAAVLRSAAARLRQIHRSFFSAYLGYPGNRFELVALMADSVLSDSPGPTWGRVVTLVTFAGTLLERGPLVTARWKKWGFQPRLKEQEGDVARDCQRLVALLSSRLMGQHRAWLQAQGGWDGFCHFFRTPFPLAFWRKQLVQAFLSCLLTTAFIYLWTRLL
Test: inhibitors of Bim-Bcl-B binding, confirmation, biochemical, dose response, multiplexed HTS hits (AID 2077)

[1] = inactive by the depositor's call

SMILES	EC50 [µM]	EC50 [1] [µM]
COc1ccc(N2C(=O)C(Cl)=C(Oc3cccc(OC)c3)C2=O)cc1 [3-chloro-4-(3-methoxyphenoxy)-1-(4-methoxyphenyl)-1H-pyrrole-2,5-dione]	0.61	
Clc1nc(NCc2cccnc2)nc(N2CCOCC2)n1 [MLS000121154]		13.5
Cc1cc(-c2cc(-c3ccc(Cl)cc3)nc(N)c2C#N)co1 [2-azanyl-6-(4-chlorophenyl)-4-(5-methylfuran-3-yl)pyridine-3-carbonitrile]		15.2
CC(=O)Nc1ccc(-n2cc(-c3ccccc3)[nH]c2=S)cc1 [MLS001001946]	0.92	
Cc1ccc(C=NNC(=O)CSc2nnc(-c3ccc(Cl)cc3)n2-c2ccccc2)o1 [SMR000218122]	16.4	
CCN(CC)c1ccc(NC(=O)c2ccccc2Br)cc1S(=O)(=O)Nc1ccccc1OC	8.66	
O=c1[nH]c(O)c(Cc2ccc(-c3cc(Cl)ccc3[N+](=O)[O-])o2)c(=O)[nH]1		36.5
O=C(NCc1ccccc1)c1ccc2nc(-c3ccco3)c(-c3ccco3)nc2c1 [2,3-bis(furan-2-yl)-N-(phenylmethyl)quinoxaline-6-carboxamide]		31.6
O=C(Nc1nnc(COc2ccc(Cl)cc2)s1)c1ccco1 [N-[5-[(4-chloranylphenoxy)methyl]-1,3,4-thiadiazol-2-yl]furan-2-carboxamide]	1.46	
S=c1[nH]cc(-c2ccccc2)n1-c1ccccc1 [SMR000196363]	0.32	
O=C1NC(=O)C2(Cc3c(nc4ccccn4c3=O)N3CCCCCC32)C(=O)N1Cc1ccccc1 (centres undefined) [MLS000083668]	6.4	
O=C1C(=Cc2ccco2)NC(=S)N1c1ccccc1 [(5E)-5-(furan-2-ylmethylidene)-3-phenyl-2-sulfanylideneimidazolidin-4-one]	2.9	
O=c1c2c(n3nnnc3n1Cc1ccccc1)-c1ccccc1CC21CCCC1 [MLS000030575]	3.57	
COc1ccccc1-n1c(-c2ccccc2)c[nH]c1=S [MLS001007615]		24.4
